Paper PMC10472371, “Discovery of E2730, a novel selective uncompetitive GAT1 inhibitor, as a candidate for anti‐seizure medication” (Epilepsia Open, 2023)
Read-outs that look alike come from different tables or passages of the source. Marks after values point to notes of the source that are not given here.

Assays:
[1] = molecular target: T1, hGABAAR (containing α1, β3, and γ2 subunits) (Homo sapiens, UniProt P14867+P18507+P28472); experiment: GABA-induced current in hGABAAR-expressing HEK-293 cells, whole-cell patch-clamp; type: cell-based
T1 construct: expressed in transfected cells; host or cells: HEK-293
Protocol: Data represent the mean ± SEM of 3 independent experiments. Control response is GABA (13 μM)-induced current amplitude. […] Cells in voltage clamp were maintained at -80 mV throughout the experiments following the voltage protocol.

[2] = tested on: corneal kindling mice; details: cited from earlier work
[3] = tested on: extracellular GABA concentration in mouse hippocampus; experiment: Microdialysis: extracellular GABA concentration in mouse hippocampus; type: in vivo; details: mouse hippocampus, oral; E2730 10-100 mg/kg, tiagabine 3-30 mg/kg
Protocol: A guide cannula was implanted in the left hippocampus (2.7 mm posterior, 3.3 mm left, and 1.8 mm below from the bregma) of ddY mice (male, 5 weeks old). After 5–7 days of recovery, a microdialysis probe (Eicom) was inserted into the left hippocampus through the guide cannula. The tip of the microdialysis probe reached 4.8 mm below the bregma. The next day, the probe was connected to a perfusion tube and perfused with Ringer solution (containing 147.0 mM NaCl, 4.7 mM KCl, 0.6 mM MgSO4, 2.5 mM CaCl2, 5.0 mM HEPES, pH 7.4) at a flow rate of 1.5 μL/min. After ≥160 minutes of perfusion, collection of the perfusate (30 μL/20 min/fraction) was initiated, and 12 fractions per animal were collected for 240 minutes. E2730 (10–100 mg/kg), tiagabine (3–30 mg/kg), or vehicle was orally administered 72 minutes after initiating sample collection. Tiagabine was used as a reference ASM of a non‐competitive GAT1 inhibitor. Perfusate was switched from Ringer solution to high‐potassium Ringer solution (51.7 mM NaCl, 100.0 mM KCl, 0.6 mM MgSO4, 2.5 mM CaCl2, 5.0 mM HEPES, pH 7.4) after 127 minutes following the collection. GABA concentration in each sample was measured by a high‐performance liquid chromatography with tandem mass spectrometry method.

[4] = tested on: ddY mice; details: ref Levy et al.[39]; cited from earlier work
[5] = molecular target: T2, hNav1.2 (Homo sapiens, UniProt Q99250); experiment: Veratridine-induced hNav1.2 activation in CHO cells, membrane potential assay; type: cell-based; details: veratridine 50 μM
T2 construct: expressed in transfected cells; host or cells: CHO
Protocol: Data represent the mean ± SEM of three independent experiments. Effects of E2730 and desipramine (Sigma-Aldrich, MO) on hNav1.2 activity were evaluated in CHO cells stably expressing hNav1.2 using a fluorescent-based membrane potential assay (Molecular Devices, CA). Activation of hNav1.2 was induced by veratridine (50 μM) and the change of fluorescence (excitation wavelength, 480 nm; emission wavelength, 540 nm) was recorded using Fluorescence Drug Screening System 6000 (Hamamatsu Photonics, Japan).

[6] = tested on: 6 Hz-44 mA psychomotor seizure mice; experiment: Pharmaco-resistant 6 Hz-44 mA psychomotor seizures in mice; type: in vivo, mouse
Protocol: Psychomotor seizures were stimulated by applying currents (44 mA, 6 Hz, 0.2 millisecond rectangular pulse width, 3‐second duration each) via a corneal electrode (SEN‐7203; Nihon Kohden). E2730 (5–50 mg/kg), levetiracetam (Tokyo Chemical Industry; 20–200 mg/kg), or vehicle was orally administered to ddY mice (male, 5 weeks old; Japan SLC Inc.) 1 hour before electrostimulation. […] Behavioral seizures observed in mice were classified into the following four types: stun, forelimb clonus, twitching of the vibrissae, and Straub‐tail.

[7] = tested on: amygdala kindling rats; experiment: Amygdala kindling in rats; type: in vivo, rat
Excerpt: A tripolar electrode was implanted into the basolateral amygdala of Wistar‐Kyoto rats (male, 7 weeks old; Charles River Laboratories Japan, Japan). After at least 5 days of recovery, the amygdala was stimulated using an electronic stimulator at currents starting at 0.04 mA (50 Hz, 1 millisecond monophasic square‐wave pulses, 1‐second duration each) then increasing by 25% to a 30‐second duration until the after‐discharge threshold (ADT) was attained. ADT was defined as the current at which abnormal electroencephalogram and at least Racine's stage‐1 seizure behavior were observed. In the Racine's stage, seizure severity was classified as: 1, mouth and facial movements; 2, head nodding; 3, forelimb clonus; 4, rearing; 5, rearing and falling. From the next day onwards, electrical stimulation at the previously determined ADT was performed once daily in each rat. The rats showing ≥3 consecutive Racine stage‐5 seizures were deemed epileptic and used for drug evaluation. The pre‐ADT (i.e. baseline) seizure threshold of each rat was established prior to drug administration. After >1 hour following the determination of pre‐ADT seizure threshold, E2730 (5–50 mg/kg), levetiracetam (25 mg/kg), or vehicle was orally administered to the rats. One hour after the administration, the post‐ADT seizure threshold of each rat was ascertained, and the ratios of post‐ADT to pre‐ADT readings were analyzed.

T1 sequence (P14867 28-456): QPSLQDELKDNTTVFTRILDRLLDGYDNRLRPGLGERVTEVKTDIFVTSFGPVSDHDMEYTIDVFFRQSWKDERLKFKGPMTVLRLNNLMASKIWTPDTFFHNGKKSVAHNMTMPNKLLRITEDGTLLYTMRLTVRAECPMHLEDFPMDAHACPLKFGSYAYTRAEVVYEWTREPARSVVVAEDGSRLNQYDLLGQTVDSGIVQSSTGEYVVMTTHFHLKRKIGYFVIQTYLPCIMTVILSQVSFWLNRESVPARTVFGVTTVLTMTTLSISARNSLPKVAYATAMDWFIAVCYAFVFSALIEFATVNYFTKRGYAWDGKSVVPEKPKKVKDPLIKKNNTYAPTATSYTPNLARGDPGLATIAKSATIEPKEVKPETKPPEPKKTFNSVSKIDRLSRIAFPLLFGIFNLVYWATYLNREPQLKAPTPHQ
T1 sequence (P28472 26-473): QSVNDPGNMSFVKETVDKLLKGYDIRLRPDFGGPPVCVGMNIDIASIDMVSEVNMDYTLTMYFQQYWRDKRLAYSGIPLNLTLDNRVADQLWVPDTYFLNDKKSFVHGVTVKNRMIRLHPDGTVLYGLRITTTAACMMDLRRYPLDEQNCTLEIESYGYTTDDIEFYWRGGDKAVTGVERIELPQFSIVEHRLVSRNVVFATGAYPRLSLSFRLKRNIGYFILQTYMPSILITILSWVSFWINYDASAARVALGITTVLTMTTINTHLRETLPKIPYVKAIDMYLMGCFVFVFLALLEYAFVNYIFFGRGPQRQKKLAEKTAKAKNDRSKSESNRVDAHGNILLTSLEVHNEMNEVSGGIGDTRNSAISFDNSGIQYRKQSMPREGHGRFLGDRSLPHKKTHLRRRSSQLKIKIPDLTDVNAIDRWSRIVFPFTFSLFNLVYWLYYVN
T1 sequence (P18507 40-475): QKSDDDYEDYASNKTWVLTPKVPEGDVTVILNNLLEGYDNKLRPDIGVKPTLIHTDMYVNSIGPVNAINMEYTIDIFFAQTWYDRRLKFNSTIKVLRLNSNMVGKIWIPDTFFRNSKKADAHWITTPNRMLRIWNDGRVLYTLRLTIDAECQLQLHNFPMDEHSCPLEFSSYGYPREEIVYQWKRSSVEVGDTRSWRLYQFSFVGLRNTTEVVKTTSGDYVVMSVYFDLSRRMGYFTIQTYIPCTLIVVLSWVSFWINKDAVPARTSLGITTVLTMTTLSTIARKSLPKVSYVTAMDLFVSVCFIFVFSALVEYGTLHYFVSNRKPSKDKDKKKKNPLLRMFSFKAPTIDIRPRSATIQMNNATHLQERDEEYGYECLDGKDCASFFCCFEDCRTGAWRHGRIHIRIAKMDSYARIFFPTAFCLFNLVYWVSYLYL
T2 sequence (Q99250 whole entry): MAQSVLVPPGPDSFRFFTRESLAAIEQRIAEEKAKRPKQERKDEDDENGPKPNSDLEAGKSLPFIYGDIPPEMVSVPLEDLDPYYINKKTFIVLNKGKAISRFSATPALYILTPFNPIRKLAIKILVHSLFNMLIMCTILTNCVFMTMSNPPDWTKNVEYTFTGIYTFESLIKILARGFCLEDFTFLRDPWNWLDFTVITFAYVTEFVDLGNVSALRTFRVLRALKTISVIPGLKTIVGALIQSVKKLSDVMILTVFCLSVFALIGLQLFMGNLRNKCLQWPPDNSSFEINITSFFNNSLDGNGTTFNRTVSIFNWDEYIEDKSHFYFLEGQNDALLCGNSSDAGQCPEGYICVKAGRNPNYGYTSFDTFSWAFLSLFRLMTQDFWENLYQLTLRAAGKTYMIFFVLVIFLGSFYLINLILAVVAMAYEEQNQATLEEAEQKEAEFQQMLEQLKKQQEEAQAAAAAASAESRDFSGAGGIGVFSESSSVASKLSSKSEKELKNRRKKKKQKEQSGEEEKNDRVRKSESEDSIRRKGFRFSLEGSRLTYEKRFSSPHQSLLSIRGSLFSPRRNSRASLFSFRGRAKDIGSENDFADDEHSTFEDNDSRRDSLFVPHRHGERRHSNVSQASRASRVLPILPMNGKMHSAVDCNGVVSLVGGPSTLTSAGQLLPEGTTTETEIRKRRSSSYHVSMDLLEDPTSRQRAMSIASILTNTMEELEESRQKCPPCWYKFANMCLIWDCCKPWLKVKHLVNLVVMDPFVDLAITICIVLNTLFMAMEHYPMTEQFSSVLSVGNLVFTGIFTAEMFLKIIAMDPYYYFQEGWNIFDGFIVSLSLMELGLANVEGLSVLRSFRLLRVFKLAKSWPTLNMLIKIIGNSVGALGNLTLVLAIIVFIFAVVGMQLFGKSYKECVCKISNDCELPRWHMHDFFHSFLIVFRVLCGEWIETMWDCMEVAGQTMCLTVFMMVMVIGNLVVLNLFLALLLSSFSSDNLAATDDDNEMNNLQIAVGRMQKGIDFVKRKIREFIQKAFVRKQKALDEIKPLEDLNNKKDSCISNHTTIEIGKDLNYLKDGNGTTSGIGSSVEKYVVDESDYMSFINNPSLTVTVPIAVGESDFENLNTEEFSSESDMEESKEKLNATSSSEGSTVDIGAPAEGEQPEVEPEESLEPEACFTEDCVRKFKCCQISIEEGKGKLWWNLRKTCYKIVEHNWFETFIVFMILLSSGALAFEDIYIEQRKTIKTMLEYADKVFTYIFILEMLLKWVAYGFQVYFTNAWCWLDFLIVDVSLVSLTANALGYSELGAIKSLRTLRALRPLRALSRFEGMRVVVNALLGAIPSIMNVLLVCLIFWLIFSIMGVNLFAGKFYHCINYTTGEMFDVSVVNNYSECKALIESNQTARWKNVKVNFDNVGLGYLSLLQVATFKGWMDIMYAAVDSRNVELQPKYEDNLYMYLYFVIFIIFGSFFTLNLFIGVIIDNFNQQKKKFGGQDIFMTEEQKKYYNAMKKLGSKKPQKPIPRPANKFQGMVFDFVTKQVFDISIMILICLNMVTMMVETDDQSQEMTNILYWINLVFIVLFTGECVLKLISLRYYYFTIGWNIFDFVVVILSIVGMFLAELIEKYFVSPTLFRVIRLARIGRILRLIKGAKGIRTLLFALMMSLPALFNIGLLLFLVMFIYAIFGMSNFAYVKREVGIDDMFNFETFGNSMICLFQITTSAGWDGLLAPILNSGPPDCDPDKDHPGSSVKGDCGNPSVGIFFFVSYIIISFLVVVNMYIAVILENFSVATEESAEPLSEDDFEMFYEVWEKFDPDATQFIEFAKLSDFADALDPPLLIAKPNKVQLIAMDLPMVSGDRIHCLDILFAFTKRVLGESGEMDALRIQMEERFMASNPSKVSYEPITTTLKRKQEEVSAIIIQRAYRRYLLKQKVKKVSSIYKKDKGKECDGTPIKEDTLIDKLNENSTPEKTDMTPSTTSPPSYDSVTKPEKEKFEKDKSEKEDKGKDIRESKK

CN1C(=O)CN=C(c2ccccc2)c2cc(Cl)ccc21 [Diazepam, diazepam]
Emax at 1 µM ([1]; HEK293, read-out: Emax, potentiation of GABA-induced current amplitude): 218%

CCCC(CCC)C(=O)O [Valproate, valproate]
ED50 (95% CI) in corneal kindling mice ([2]; ref Matagne et al.[40]): 110 ^c (83, 143) mg/kg

Cc1ccsc1C(=CCCN1CCC[C@@H](C(=O)O)C1)c1sccc1C [Tiagabine, tiagabine, reference compound]
effect on basal extracellular GABA concentration [3]: significantly increased
effect on high-potassium-induced extracellular GABA concentration [3]: significantly increased
EC50 ([1]; GABA 13 μM, -80 mV, read-out: EC50, potentiation of GABA-induced current amplitude): 4.8 µM
Emax at 100 µM ([1]; HEK293, at 100 μM, control response GABA (13 μM)-induced current, read-out: Emax, potentiation of GABA-induced current amplitude): 153%
ED50 (95% CI) in corneal kindling mice ([2]; ref Madsen et al.[38]): 0.51 ^a mg/kg
TD50 (95% CI) in mouse rotarod test [4]: 1.29 ^b mg/kg

CCC1(c2ccccc2)C(=O)NC(=O)NC1=O [Phenobarbital, phenobarbital]
ED50 (95% CI) in corneal kindling mice ([2]; ref Matagne et al.[40]): 11 ^c (7, 15) mg/kg

O=C1CN=C(c2ccccc2Cl)c2cc([N+](=O)[O-])ccc2N1 [Clonazepam, clonazepam]
ED50 (95% CI) in corneal kindling mice ([2]; ref Matagne et al.[40]): 0.04 ^c (0.02, 0.07) mg/kg

CNCCCN1c2ccccc2CCc2ccccc21 [Desipramine, desipramine, reference compound]
IC50 [5]: 4.9 µM

CC[C@@H](C(N)=O)N1CCCC1=O [Levetiracetam, levetiracetam]
ED50 ([6]; Mus musculus, oral, 1 hour before electrostimulation, ddY mice, read-out: ED50 (95% CI), 6 Hz-44 mA psychomotor seizures): > 200 mg/kg
anti-seizure efficacy in 6 Hz-44 mA psychomotor seizures ([6]; levetiracetam 20-200 mg/kg oral): did not show ≥50% efficacy
post-ADT/pre-ADT ratio ([7]; levetiracetam 25 mg/kg oral): 127%
Minimum effective dose, amygdala kindling (rat) ([7]; oral, footnote a: minimum effective dose): 25 mg/kg
ED50 (95% CI) in corneal kindling mice ([2]; ref Matagne et al.[40]): 16 ^c (6, 43) mg/kg
TD50 (95% CI) in mouse rotarod test [4]: >500 ^b mg/kg

CCC1(C)CC(=O)NC1=O (stereo not shown) [Ethosuximide, ethosuximide]
ED50 (95% CI) in corneal kindling mice ([2]; ref Matagne et al.[40]): >254 ^c mg/kg

NC(=O)N1c2ccccc2C=Cc2ccccc21 [Carbamazepine, carbamazepine]
ED50 (95% CI) in corneal kindling mice ([2]; ref Matagne et al.[40]): 9 ^c (5, 11) mg/kg
